These results are taken from PubChem BioAssay (NCI).

Molecules are shown by their SMILES.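 Values below derive from 48-hour exposures of cells grown in 96-well plates, with endpoints linearly interpolated between the two concentrations bracketing the appropriate inhibition level. GI50 marks 50% less growth. Definition used: TGI = concentration required for complete inhibition of growth.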 Where a SMILES comes first, the peptide text is derived from it. [ ]: non-standard residue; d: D form. The star is where a group is joined. ξ: configuration not given here. ξF = NC(Cc1ccccc1)C(=O)O; Cbz = O=C(OCc1ccccc1)*; Aib = CC(C)(N)C(=O)O

Among the test systems are DU-145 prostate; HCT-15 colon; NCI-H226 lung; NCI-H522 lung; NCI/ADR-RES ovarian; SF-539 CNS; SK-MEL-28 melanoma; SN12C renal; UACC-257 melanoma; SNB-75 CNS.
Test in all cases: NCI anticancer screen, dose series, 48 h

`COc1cc(Nc2nnc3n2S(=O)(=O)c2cc(C)c(Cl)cc2S3)cc(OC)c1`: the TGI in the test on DU-145 prostate is 44.2 µM; in the test with HCT-15 colon, > 100 µM; in the test on NCI-H226 lung, 55.1 µM; in the test with NCI-H522 lung, 8.44 µM; in the test with NCI/ADR-RES ovarian, > 100 µM; with SF-539 CNS, 6.31 µM. Besides, the TGI with SK-MEL-28 melanoma, in the test with SN12C renal and with UACC-257 melanoma was > 100 µM each time.

`C(=N\OCCc1ccccc1)/c1cccnc1`: the TGI with DU-145 prostate, in the test with HCT-15 colon, with NCI-H226 lung, in the test with NCI-H522 lung, with NCI/ADR-RES ovarian and with SF-539 CNS was > 100 µM each time. The TGI in the test on SK-MEL-28 melanoma, in the test with SN12C renal, in the test with SNB-75 CNS and in the test on UACC-257 melanoma was > 100 µM throughout.

As to `COC(=O)C(C)(C)NC(=O)C(Cc1ccccc1)NC(=O)C(C)(C)NC(=O)OCc1ccccc1` (stereo not given) (Cbz-[Aib]-[ξF]-[Aib]-OMe), the TGI in the test on DU-145 prostate, in the test with HCT-15 colon, in the test with NCI-H522 lung, in the test on NCI/ADR-RES ovarian, in the test on SK-MEL-28 melanoma and in the test on UACC-257 melanoma was > 100 µM in each case.

For `Cc1ccc(C(O)(c2ccc(C)cc2)c2ccccn2)cc1`, the TGI in the test with HCT-15 colon, in the test with NCI-H226 lung, in the test with SF-539 CNS, in the test with SK-MEL-28 melanoma, in the test with SN12C renal and in the test with SNB-75 CNS was > 100 µM in each case. Further, the TGI in the test with UACC-257 melanoma was > 100 µM.

`CC(C)(C)c1cc(OCc2nnc3sc(=S)[nH]n23)c(Cl)cc1OCc1nnc2sc(=S)[nH]n12`: the TGI in the test on DU-145 prostate was 94 µM; in the test on HCT-15 colon, > 100 µM; in the test on NCI-H226 lung, > 100 µM; in the test on NCI-H522 lung, 37.8 µM; in the test with NCI/ADR-RES ovarian it was > 100 µM; with SF-539 CNS it was > 100 µM. Moreover, the TGI was 58.4 µM in the test with SK-MEL-28 melanoma, > 100 µM in the test on SN12C renal, 92 µM in the test with SNB-75 CNS and 83.8 µM with UACC-257 melanoma.

For `COc1cc(-c2n/c(=C\c3c(O)[nH]c4cc(Cl)ccc34)cc3c2=Nc2ccccc2-3)cc(OC)c1OC`, the GI50 is 2.57 µM in the test on DU-145 prostate; 30.9 µM in the test on HCT-15 colon; 3.85 µM in the test on NCI-H226 lung; 3.85 µM in the test with NCI-H522 lung; 2.84 µM with NCI/ADR-RES ovarian; 11.2 µM in the test with SF-539 CNS. Besides, the GI50 in the test with SK-MEL-28 melanoma was 4.05 µM; with SN12C renal it was 4.15 µM; with SNB-75 CNS it was 5.05 µM; with UACC-257 melanoma, 4.01 µM. The TGI with DU-145 prostate was 7.52 µM; in the test on HCT-15 colon, > 100 µM; with NCI-H226 lung it was 21.9 µM; with NCI-H522 lung, 18.4 µM; in the test on NCI/ADR-RES ovarian it was 20.1 µM; in the test with SF-539 CNS it was 30.8 µM. For the same compound, the TGI in the test with SK-MEL-28 melanoma is 13.8 µM; in the test with SN12C renal it was 26.1 µM; with SNB-75 CNS, 25.1 µM; in the test with UACC-257 melanoma, 18.8 µM.

As to `COC1=CC(=O)c2c(c(COP(=O)(N(C)CCBr)N(C)CCBr)cn2C)C1=O`, the TGI in the test on DU-145 prostate turned out to be 1.06 µM; with HCT-15 colon, 0.193 µM; in the test with NCI-H522 lung it was 0.374 µM; in the test with NCI/ADR-RES ovarian, 1.71 µM; in the test with SF-539 CNS, 0.0678 µM; in the test with SK-MEL-28 melanoma, 0.33 µM. For the same compound, the TGI was determined as 0.371 µM with SN12C renal, 0.442 µM in the test with SNB-75 CNS and 1.2 µM in the test with UACC-257 melanoma.

For `Nc1nc2ccc(OCC(O)CN3CCCCC3)cc2[n+]([O-])n1` (stereo not given), the TGI with DU-145 prostate, in the test on HCT-15 colon, in the test with NCI-H226 lung, with NCI-H522 lung, in the test with NCI/ADR-RES ovarian and in the test on SF-539 CNS was > 100 µM each time. In addition, the TGI in the test with SK-MEL-28 melanoma, in the test with SN12C renal, with SNB-75 CNS and in the test with UACC-257 melanoma was > 100 µM throughout.

As to `CCOc1ccc(N=NS(=O)(=O)O)cc1`, the TGI in the test with DU-145 prostate, in the test with HCT-15 colon, with NCI-H226 lung, with NCI-H522 lung, with NCI/ADR-RES ovarian and in the test with SF-539 CNS was > 100 µM throughout. Further, the TGI in the test on SK-MEL-28 melanoma, in the test with SN12C renal, with SNB-75 CNS and in the test on UACC-257 melanoma was > 100 µM in each case.

Consider `Nc1c(-c2ccccc2[N+](=O)[O-])nc2ccccn12`, for which the TGI with HCT-15 colon, with NCI-H226 lung, in the test on SK-MEL-28 melanoma, in the test with SN12C renal and in the test with UACC-257 melanoma was > 100 µM each time.

Turning to `Clc1ccc(-c2ccc(-c3nnc(COc4ccc(OCc5nnc(-c6ccc(-c7ccc(Cl)cc7Cl)o6)o5)c(Cl)c4)o3)o2)c(Cl)c1`, the TGI with DU-145 prostate, in the test with HCT-15 colon, with NCI-H226 lung, with NCI-H522 lung, in the test on NCI/ADR-RES ovarian and in the test with SK-MEL-28 melanoma was > 100 µM each time. Also, the TGI in the test with SN12C renal and in the test on UACC-257 melanoma was > 100 µM throughout.

As for `CCCCOCc1cc(CN2CCN(C)CC2)c(O)c2ncccc12`, the TGI in the test with HCT-15 colon is 33.7 µM; with NCI-H226 lung, 88.4 µM; in the test on NCI-H522 lung, > 100 µM; with SF-539 CNS, 76.7 µM; in the test on SK-MEL-28 melanoma, > 100 µM; in the test with SN12C renal it was > 100 µM. Besides, the TGI with SNB-75 CNS and in the test on UACC-257 melanoma was > 100 µM throughout.

With `Cc1ccc(N2CCN(CCC(=O)O)CC2)cc1`, the TGI in the test with DU-145 prostate, in the test on HCT-15 colon, in the test on NCI-H226 lung, in the test with NCI-H522 lung, in the test on NCI/ADR-RES ovarian and in the test with SF-539 CNS was > 100 µM each time. The TGI with SK-MEL-28 melanoma, in the test on SN12C renal, with SNB-75 CNS and with UACC-257 melanoma was > 100 µM each time.

In the case of `C[CH2][Ge]([CH2]C)([CH2]C)[O]C(=O)CCC(=O)[O][Ge]([CH2]C)([CH2]C)[CH2]C`, the GI50 in the test on HCT-15 colon is 48.4 µM; in the test on NCI-H226 lung it was > 100 µM; in the test with NCI-H522 lung it was 45.2 µM; in the test on SF-539 CNS, > 100 µM; in the test on SK-MEL-28 melanoma it was > 100 µM; in the test with SN12C renal it was > 100 µM. Besides, the TGI in the test on HCT-15 colon, in the test on NCI-H226 lung, in the test with NCI-H522 lung, with SF-539 CNS, with SK-MEL-28 melanoma and with SN12C renal was > 100 µM in each case.

In the case of `CC(C)(CCCCC(C)(C)C1NC(=O)N1)C1NC(=O)N1`, the TGI with DU-145 prostate, in the test on HCT-15 colon, in the test with NCI-H226 lung, in the test with NCI-H522 lung, with NCI/ADR-RES ovarian and in the test on SF-539 CNS was > 10 µM throughout. For the same compound, the TGI in the test with SK-MEL-28 melanoma, in the test with SN12C renal and in the test with SNB-75 CNS was > 10 µM each time.

`CC(C)CC(NC(=O)C(Cc1ccccc1)NC(=O)C(Cc1c[nH]c2ccccc12)NC(=O)CNC(=O)C(N)Cc1ccc(O)cc1)C(=O)O` (stereo not given) (H-YGWFL-OH; configuration not given here): the TGI in the test with DU-145 prostate was > 100 µM; in the test on HCT-15 colon, > 100 µM; in the test with NCI-H226 lung, > 100 µM; with NCI-H522 lung, 95.6 µM; in the test with NCI/ADR-RES ovarian it was > 100 µM; with SF-539 CNS, 87 µM. For the same compound, the TGI in the test on SK-MEL-28 melanoma was > 100 µM; with SN12C renal, > 100 µM; in the test on SNB-75 CNS, 93.9 µM; in the test with UACC-257 melanoma, > 100 µM.

As for `CCOC(=O)CCC(NC(=O)OCc1ccccc1)C(=O)NC(CCC(=O)OCC)C(=O)NNC(=O)OC(C)(C)C` (stereo not given), the TGI in the test on DU-145 prostate, in the test on HCT-15 colon, with NCI-H226 lung, in the test with NCI-H522 lung, in the test with NCI/ADR-RES ovarian and in the test on SK-MEL-28 melanoma was > 100 µM in each case. The TGI with SN12C renal and in the test on SNB-75 CNS was > 100 µM in each case.

On to `COc1cc(S(=O)(=O)Nc2ccc(-c3csc(N4C(=O)C(Cl)C4c4ccccc4)n3)cc2)ccc1Cl` (stereo not given), for which the TGI was 38.7 µM with DU-145 prostate; > 100 µM with HCT-15 colon; 33.9 µM in the test on NCI-H522 lung; > 100 µM in the test on NCI/ADR-RES ovarian; > 100 µM with SF-539 CNS; > 100 µM in the test with SK-MEL-28 melanoma. The TGI in the test on SN12C renal is 94 µM; with SNB-75 CNS, 49.1 µM; in the test with UACC-257 melanoma it was > 100 µM.
